Test results reported in paper PMC11404609, “Gut microbiota-mediated C-sulfonate metabolism impairs the bioavailability and anti-cholestatic efficacy of andrographolide” (Gut Microbes, 2024).

Key:
[1] = Tissue distribution of AP and APM in mice; format: in vivo
Description: Control and ABX rats were orally administered a single dose of AP at 120 mg/kg. Control, ABX and germ-free C57BL/6J mice were orally administered a single dose of AP at 100 mg/kg. After 90 min of AP administration, all animals were euthanized, and blood and tissue samples were collected for subsequent analysis.
After 360 min of AP treatment, all mice were euthanized, and tissue samples were collected for subsequent analysis. […]
An ACQUITY^TM UPLC-MS/MS system equipped with an ACQUITY^TM UPLC BEH C18 Column (50 × 2.1 mm I.D., 1.7 μm, Waters, Milford, MA, USA) was utilized for the quantification of AP and APM as previously described.[47] Briefly, the detection samples (50 μL) were mixed with 50 μL of IS (50 ng/mL). AP and APM were extracted by 400 μL cold methanol. Supernatants were dried under nitrogen stream. Then, the residue was dissolved with 50% methanol in water, centrifuged for 30 min at 13,000 rpm, and 10 µL of the supernatant was subjected to UPLC-MS/MS analysis. The mobile phases consisted of eluent A (water) and eluent B (methanol) with a gradient elution as follows: 0–0.8 min, 10% B; 0.8–1.2 min, 10–90% B; 1.2–5.0 min, 90% B; 5.0–5.5 min, 90–10% B; 5.5–7.0 min, 10% B. The flow rate was 0.3 mL/min and the injection volume of all samples was 10 μL. The quantification of AP, APM and IS was performed by UPLC-MS/MS using an MRM method with the transitions of m/z 349.1→m/z 287.2 for AP, m/z 413.2→m/z 287.2 for APM, m/z 269→m/z 133 for IS.
AP was administered intravenously and orally to detect the production of the C-sulfonate metabolite APM. In tissue distribution experiment, rats were given AP intravenously (24 mg/kg) or orally (120 mg/kg), while mice received AP intravenously (20 mg/kg) or orally (100 mg/kg). After a 90-minute interval, the animals were sacrificed, and their liver, kidneys, small intestine, and colon were collected for analysis. In pharmacokinetic studies, rats were administered 24 mg/kg of AP intravenously or 120 mg/kg of AP by oral gavage. Blood samples were collected at predetermined time intervals (0, 5, 10, 20, 30, 40, 60, 90, 120, 180, 240, 360, and 480 min), as described, to detect the content of AP and APM by UPLC-MS/MS.

SULTs = test: AP incubation with liver S9 fraction (SULT-mediated metabolism); format: in vitro ADME, human, rat, mouse; conditions: HLS9, RLS9, MLS9 with PAPS, 37°C
Description: A sulfonate reaction system and incubation procedures were followed those of a previous study^4. Briefly, the reaction mixture (total volume 200 μL) consists of 10 μL enzymes (MLS9, RLS9 and HLS9 at different concentrations), 5 μL magnesium chloride (1 mM), 5 μL 3’-phosphoadenosine-5’-phosphosulfate (PAPS, 0.05 mM), 178 μL potassium phosphate (KPI) buffer (44.5 mM, pH 7.4) and 2 μL AP at different concentrations. The mixture was prepared in triplicates and incubated in a shaking water bath at 37°C for various durations. The reactions were terminated by the addition of acetonitrile solution.

D. piger = format: in vitro ADME, Desulfovibrio piger
Description: The cecum contents from mice were collected and mixed with sterilized anaerobic medium in a ratio of 1.0 g to 10 mL, with gentle agitation. After filtered, the mixed medium containing the intestinal flora was placed in an anaerobic environment and preincubated at 37°C for 30 min before use. Mixed medium with or without APS reductase inhibitor bromocriptine mesylate (20 μg/mL) was incubated with AP (10 μg/mL), while autoclaved mixed medium without APS reductase inhibitor served as the control. Incubation was performed in a shaking incubator at 37°C for 6 h, with strict maintenance of anaerobic condition throughout the process.[44] Similarly, D. piger (0.2 mL, 1 × 10^8 CFU/mL) with or without inhibitor, was incubated with AP for 0, 3, 6, and 12 h, with autoclaved D. piger without inhibitor serving as the control. […] And then samples were analyzed by UPLC-MS/MS to detect the concentrations of AP and APM. Concentrations of APS reductase and HSO3^− were also determined at the end of incubation.
For the determination of APS reductase concentration, the supernatant from mouse cecum contents and the D. piger strain were assessed using microorganism APS reductase elisa assay kit (Shanghai Senxingyan Biotechnology Co., Ltd., China), following the instructions provided with the kit. […] Subsequently, the absorbance of the resulting solutions was measured at a wavelength of 560 nm after 40 min.

gut microbiota = test: Shotgun metagenomic sequencing of cecum samples after AP treatment; format: in vivo; conditions: mice cecum, AP 400 mg/kg, oral, 14 d
Description: Shotgun metagenomic sequencing was performed using cecum samples from mice after AP treatment (400 mg/kg, oral, 14 d). DNA was extracted by a PF Mag-Bind DNA Kit (Omega Bio-tek, USA) and qualified by 1% Agarose gel electrophoresis. Extracted DNA was fragmented by Covaris M220 (Gene Company Limited, China) and screened at approximately 400 bp fragments for paired-end library construction. NEXTFLEX® Rapid DNA-Seq (Bioo Scientific, USA) was used to build paired-end library construction. The Illumina NovaSeq 6000 (Illumina, USA) sequencing platform was used for metagenomic sequencing. Fastp was used to perform quality cropping on the adapter sequences of the 3’ and 5’ ends of reads, preserving high-quality paired-end reads and single-end reads. BWA (version 0.7.17) was used to construct the reads with the host DNA sequence and remove contaminated reads with high alignment similarity. MEGAHIT (version 1.1.2) was used to splice and assemble the optimized sequence. SOAP aligner (version soap2.21release) was used to compare the high-quality reads of each sample with the non-redundant gene set (95% identity) and calculate the abundance information of genes in the corresponding samples. DIAMOND (version 2.0.11) was used to annotate species taxonomy, and KEGG function. Data was deposited into the NCBI Sequence Read Archive (SRA) database.

concentration of AP in tissues ([1]; ABX-treated mice vs Control, AP 100 mg/kg oral): notably increased
C-sulfonate metabolism of AP ([1]; germ-free mice, AP 100 mg/kg oral): suppressed
AP concentration in tissues such as the liver ([1]; mice colonized with D. piger vs Control, AP 100 mg/kg p.o.): notable reduction
concentration of AP in the intestine and liver ([1]; mice of pharmacological experiment, AP 200 mg/kg, following ABX treatment vs Control): significantly increased
AP levels in mouse tissues ([1]; mice, AP 100 mg/kg p.o., Na2SO4 pre-treatment vs Control): decreased AP levels
AP levels in mouse tissues ([1]; mice, AP 100 mg/kg p.o., bromocriptine mesylate pre-treatment vs Control): elevated AP levels
AP exposure within the small intestine and liver ([1]; mice, AP 200 mg/kg p.o. with APS reductase inhibitor vs without): increase in AP exposure
production of the metabolite APM in SULT-mediated metabolism incubation system (SULTs): absence of detectable production
SMILES: C=C1CC[C@@H]2[C@](C)(CO)[C@H](O)CC[C@@]2(C)[C@@H]1C/C=C1/C(=O)OC[C@H]1O [AP, Andrographolide]
metabolism of AP into APM by D. piger in vitro (D. piger): time-dependent ability to metabolize AP into APM
expression of APS reductase / growth of APS reductase-producing gut microbiota (gut microbiota): did not induce significant alterations
expression of Enterococcus, Lactobacillus, and Escherichia bacteria (gut microbiota): did not suppress
